Legend:
RAW264.7 cells [1] = experiment: Osteoclast differentiation measured by TRAP staining of RANKL-treated RAW264.7 cells; assay type: cell-based, mouse; conditions: 2.5 or 6 days
Procedure: Cellular model RAW264.7 (mouse macrophage cell line, ATCC # TIB-71). These cells differentiate in osteoclast-like cells upon addition of receptor activator of nuclear factor-kappaB ligand (RANKL). Cell differentiation usually occurs within two days. Cells were studied at 2.5 (early stage), 6 and 10 days (late stage) following RANKL addition. Experimental treatments: In some experiments, 4-P-PDOT was added to the cells at the same time as RANKL at a concentration of 10^−6M. Cells cultured with RANKL only served as controls. In order to assess osteoclastogenesis, RAW264.7 cells were cultured with RANKL for 2.5 or 6 days with and without 10^−6M of 4-P-PDOT. RAW264.7 cells were fixed with paraformaldehyde and stained for TRAP activity (marker of active osteoclasts) at 2.5 and 6 days of differentiation. Positive-stained cells with more than 3 nuclei were counted in eight different microscopic fields done in quadruplicate. Results are presented in FIGS. 3A and B for the 2.5 or 6 days experiments, respectively. […] The effect of melatonin on osteoclastogenesis and osteoclast function was assessed with the same methods as those described in Examples 2 and 3 above except that cells were grown in the presence of 10^−9M of melatonin in addition to RANKL. In some experiments, melatonin was added along with 10^−6M of 4-P-PDOT. Cells treated with RANKL alone served as controls.

[2] = system: adenylyl cyclase activity of forskolin-stimulated RAW 264.7 cells; experiment: cAMP production in forskolin-stimulated RAW264.7 cells (enzyme immunoassay); assay type: cell-based, mouse; conditions: increasing doses, 10^-4M forskolin, 30 minutes at 37° C., no RANKL
Procedure: RAW264.7 cells were grown in culture medium without RANKL until confluence (7 days). Cells were then incubated with 10^−4M of forskolin in presence of various concentrations of melatonin (FIG. 9, panel A), 4-P-PDOT (FIG. 9, panel B) or both (FIG. 9, panel C). Concentrations ranged from 10^−11 to 10^−5M for melatonin and from […] to 10^−4M for 4-P-PDOT. In the double treatment group, cells were treated with increasing concentrations of melatonin (10^−11 to 10^−5M) to which 10^−6M of 4-P-PDOT was added. After 30 minutes incubation at 37° C., cells were lysed in TRIS-EDTA buffer supplemented with protease and phosphodiesterase inhibitors at 4° C. The cAMP content was determined in duplicate in 200 μL aliquot of the supernatant using an enzyme immunoassay kit. […]

RAW264.7 cells [3] = experiment: Cell apoptosis by DeadEnd fluorometric TUNEL system; assay type: cell-based, mouse; conditions: 10^-6M 4-P-PDOT with RANKL, 6 days
Procedure: RAW264.7 cells were grown in culture medium with RANKL for 6 days with or without 10^−6M of 4-P-PDOT. Cells were fixed in 3.7% of paraformaldehyde and permeabilized with 0.2% Triton™-X-100. A subset of cells were treated with DNase for 10 minutes at room temperature and served as positive controls. Cell apoptosis was determined using the DeadEnd™ fluorometric TUNEL system. This method measures fragmented DNA through the incorporation of fluorescent-labeled d-UTP. Permeabilized cells were incubated in equilibration buffer with a nucleotide mix and the enzyme that catalyzes the reaction for 1 hour at 37° C. Negative controls were incubated without the enzyme. After several rinses in SSC and PBS, cells were mounted and visualized by fluorescence microscopy.

RAW264.7 cells [4] = experiment: Cell proliferation by tritiated thymidine incorporation; assay type: cell-based, mouse; conditions: 10^-6M 4-P-PDOT with RANKL, 2.5 days
Procedure: After 24 hour attachment, RAW264.7 cells were serum-starved overnight and then grown for 2.5 days in culture medium containing RANKL and melatonin (10^−7 or 10^−6M), or melatonin (10^−6M) and a melatonin receptor non-specific antagonist, luzindole (10^−8M), or melatonin (10^−6M) and 4-P-PDOT (10^−6M), or luzindole (10^−6M), or 4-P-PDOT (10^−6M) alone. Thymidine incorporation was assayed by the addition of 0.02 μCi/μL of tritiated thymidine to the medium 8 hours before cell harvest. Cells were then washed twice with ice-cold PBS and three times with cold 5% trichloroacetic acid. Cells were lysed in a mixture of 0.5N NaOH and 0.5% SDS and radioactivity of the lysates determined using a beta-counter.

RANK = RANK expression by RT-PCR in RAW264.7 cell-derived osteoclasts; assay type: cell-based, mouse; conditions: RT-PCR after 6 days of treatment; 10^-9M melatonin, 10^-6M 4-P-PDOT
Procedure: The effect of melatonin and of 4-P-PDOT on the expression of various genes involved in osteoclast differentiation and activity was evaluated by RT-PCR after 6 days of treatment.

male C57Bl/6j mice = experiment: Low-BMD mouse model: weight gain and bone densitometry over 35 days; assay type: in vivo; conditions: 10 mg/kg intraperitoneally three times a week, first 35 days
Procedure: In parallel, control animals received injections of a solution made of water and ethanol (20%). During this period, animals were subjected to weekly bone densitometric measurements (BMD and bone mineral content (BMC)) with a PixiMus™ II bone densitometer, and blood and urine collection. Scan of individual spine, long bones (femurs), were performed. Scans of tibiae, radius and mandible were also performed. To monitor bone formation rate, 25 mg/kg of tetracycline hydrochloride was injected on days 10 and 20 following the beginning of the injections. Bone histomorphometry for bone formation and resorption static and dynamic parameters were also measured. The biochemical markers used are alkaline phosphatase for bone formation, and urinary deoxypyridinoline for bone resorption.

male C57BL/6 mice = experiment: Femur section histology (TRAP and Goldner staining) in treated mice; assay type: in vivo, mouse; conditions: 10 mg/kg intraperitoneally three times a week, 4 weeks
Procedure: The effect of 4-P-PDOT on the formation of bones has also been tested using 4-week old male C57BL/6 mice following weaning. Mice were injected intraperitoneally with 10 mg/kg of 4-P-PDOT three times a week for 4 weeks (28 days). After this period, femur sections were stained to quantify tartrate-resistant acidic phosphatase- (TRAP-) positive osteoclasts (i.e. “active” osteoclasts). […] A Goldner staining was also performed on the femur sections in order to quantify the total number of osteoclasts.

RAW 264.7 cells = experiment: Bone resorption assay on resorbable bone analog (BioCoat Osteologic discs); assay type: cell-based, mouse; conditions: 10^-9M melatonin with RANKL, 10 days culture
Procedure: Osteoclast activity was determined using a resorbable bone analog (BioCoat™ Osteologic™ discs, BD Biosciences). RAW 264.7 cells were plated on 16-well plates coated with this analog. 24 hours post-plating, cells were treated with RANKL alone or with RANKL+10^−6M of 4-P-PDOT for a period of 10 days. In another set of experiments, 10^−6M of 4-P-PDOT was added after 6 days of culture with RANKL and cells were cultured for an additional 4 days in order to examine the effects of 4-P-PDOT on more mature cells. At the end of the culture period, cells were detached with bleach and bone analog stained with 5% silver nitrate according to manufacturer's instructions to reveal the presence of resorbed bone area (resorption pits). The number of pits and the area of resorbed bone were quantified in 8 microscopic fields in duplicate using Bioquant™ software. The effect of melatonin on osteoclastogenesis and osteoclast function was assessed with the same methods as those described in Examples 2 and 3 above except that cells were grown in the presence of 10^−9M of melatonin in addition to RANKL. In some experiments, melatonin was added along with 10^−6M of 4-P-PDOT. Cells treated with RANKL alone served as controls.

Compound | number of TRAP+ cells (osteoclast differentiation) (RAW264.7 cells [1]; 10^-6M 4-P-PDOT with RANKL) | cAMP production [2] | apoptosis, treated vs. untreated cells (RAW264.7 cells [3]) | cell proliferation, treated vs. untreated cells (RAW264.7 cells [4]) | RANK's expression (RANK) | bone mineral accretion at the spine and whole body level vs vehicle-injected animals (male C57Bl/6j mice) | weight gain vs vehicle-injected animals (male C57Bl/6j mice) | number of active (TRAP-positive) osteoclasts in femur sections vs control mice (male C57BL/6 mice) | number of total osteoclasts (Goldner staining) in femur sections (male C57BL/6 mice) | reduction in the relative number of active osteoclasts vs vehicle-treated mice (male C57BL/6 mice) | relative number of total osteoclasts vs vehicle-treated mice (male C57BL/6 mice) | trabecular bone (Goldner staining) in femur sections (male C57BL/6 mice) | effect on osteoclastogenesis (TRAP-positive cells) (RAW264.7 cells [1]; 10^-9M melatonin with RANKL) | bone resorption (resorption pits, resorbed area) (RAW 264.7 cells)
CCC(=O)NC1Cc2ccccc2C(c2ccccc2)C1 (stereo not shown) [4-P-PDOT, 4-phenyl-2-propionamidotetralin] | reduces the number of TRAP+ cells | cAMP production increases | comparable | comparable | significant decrease | increase | increase | significant reduction | increased | about 3 fold | increased | increased | – | –
COc1ccc2[nH]cc(CCNC(C)=O)c2c1 [melatonin] | – | inhibited | – | – | significant decrease | – | – | – | – | – | – | – | did not have a significant effect | significantly reduced bone resorption

Reference: US8222298B2, “Methods of correcting imbalance between bone resorption and bone formation and kits and compositions therefor” (CHU Sainte-Justine, priority 2007, dated 2012)
